Measured values as given in patent publication US20170340598A1, “Method of Reducing Uric Acid with Fucoxanthin-Containing Composition” (TCI Co., Ltd., priority 2016, published 2017).

What was measured:
[1] = molecular target: xanthine oxidase (Homo sapiens, UniProt P47989); test: Evaluation of the inhibition of xanthine oxidase activity; assay type: biochemical; conditions: extract extracted for 120 minutes; fucoxanthin at the same concentration as the extract
Description: 50 μL of the test sample, 35 μL of phosphate buffer (70 mM, pH 7.5) and 30 μL of xanthine oxidase (0.02 units/mL) were mixed and shaken, and allowed to stand at room temperature for 15 minutes. Then, 60 μL of xanthine (150 μM) was added and allowed to react at room temperature for 30 minutes; the reaction was then stopped by the addition of 100 μL of the HCl (1N), followed by measuring absorbance at 290 nm. The inhibitory effect of the test sample against xanthine oxidase activity was evaluated and compared with the control group.

[2] = tested on: NOS2 (inducible nitric oxide synthase) gene; test: NOS2 gene expression in MSU-induced ADTC5 cells (qPCR); assay type: cell-based, mouse; conditions: extract 2 mg/ml, fucoxanthin 1 ppm, normalized to β-actin
Description: Next, the cells were treated with monosodium urate (MSU) (0.125 mg/ml, in medium) to induce uric acid crystallization. Cells were divided into three groups: Group 1 was treated with Ascophyllum nodosum extract extracted for 120 minutes (2 mg/ml, in medium); group 2 was treated with fucoxanthin (1 ppm, in medium); group 3 was untreated (the control group). […] Next, reverse transcription was performed using a SuperScript™ reverse transcription kit (Invitrogen). The NOS2 (inducible nitric oxide synthase) gene was quantified using the ABI StepOnePlus™ System (Applied Biosystems), and β-actin was used as a reference gene for normalizing each sample. It is known that accumulation of uric acid crystals in the joints causes inflammation in joint cavities, which leads to the increase of NOS2 gene expression in chondrocytes. Therefore, NOS2 gene expression levels were used to evaluate the degree of inflammation of cells caused by uric acid crystallization. […] Statistical analysis was performed by Student's t-test (Microsoft Excel software).

xanthine oxidase, sequence (P47989 whole entry, species assumed): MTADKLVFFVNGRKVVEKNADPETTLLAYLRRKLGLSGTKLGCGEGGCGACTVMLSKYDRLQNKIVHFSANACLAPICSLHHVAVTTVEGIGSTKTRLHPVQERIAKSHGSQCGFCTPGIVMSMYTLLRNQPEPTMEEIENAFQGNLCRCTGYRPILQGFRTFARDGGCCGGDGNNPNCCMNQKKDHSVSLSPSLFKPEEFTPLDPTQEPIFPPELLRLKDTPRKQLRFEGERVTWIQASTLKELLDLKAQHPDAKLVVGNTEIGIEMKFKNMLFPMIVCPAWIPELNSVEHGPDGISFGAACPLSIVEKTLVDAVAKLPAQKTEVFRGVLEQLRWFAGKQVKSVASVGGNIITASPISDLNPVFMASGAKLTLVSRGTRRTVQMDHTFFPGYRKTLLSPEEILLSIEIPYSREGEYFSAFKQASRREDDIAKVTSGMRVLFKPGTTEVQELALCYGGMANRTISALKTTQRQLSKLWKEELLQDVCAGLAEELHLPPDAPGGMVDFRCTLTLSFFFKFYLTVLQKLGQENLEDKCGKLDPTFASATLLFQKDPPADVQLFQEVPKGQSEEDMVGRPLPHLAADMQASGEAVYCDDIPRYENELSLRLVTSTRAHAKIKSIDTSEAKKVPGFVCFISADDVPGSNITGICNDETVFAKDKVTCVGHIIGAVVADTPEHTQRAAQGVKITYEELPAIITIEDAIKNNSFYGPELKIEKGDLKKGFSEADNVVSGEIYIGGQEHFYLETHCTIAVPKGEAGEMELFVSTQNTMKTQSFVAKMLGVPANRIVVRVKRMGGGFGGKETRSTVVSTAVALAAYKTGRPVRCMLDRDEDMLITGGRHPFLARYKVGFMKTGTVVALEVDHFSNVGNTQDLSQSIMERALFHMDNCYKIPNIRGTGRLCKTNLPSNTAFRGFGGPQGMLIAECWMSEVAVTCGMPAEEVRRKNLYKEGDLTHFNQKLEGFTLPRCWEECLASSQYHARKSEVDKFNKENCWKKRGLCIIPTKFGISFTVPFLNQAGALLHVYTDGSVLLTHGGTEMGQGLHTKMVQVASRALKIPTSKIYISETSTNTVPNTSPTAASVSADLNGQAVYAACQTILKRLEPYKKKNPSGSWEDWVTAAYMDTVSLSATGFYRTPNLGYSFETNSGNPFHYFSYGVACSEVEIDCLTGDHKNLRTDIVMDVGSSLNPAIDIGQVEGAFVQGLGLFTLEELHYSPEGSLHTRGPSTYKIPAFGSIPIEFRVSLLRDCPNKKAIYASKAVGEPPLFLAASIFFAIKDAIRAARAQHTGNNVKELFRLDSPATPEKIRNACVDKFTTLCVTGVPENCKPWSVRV

Question: What does the source list for CC(=O)O[C@H]1CC(C)(C)C(=C=C/C(C)=C/C=C/C(C)=C/C=C/C=C(C)/C=C/C=C(\C)C(=O)C[C@@]23O[C@]2(C)C[C@@H](O)CC3(C)C)[C@](C)(O)C1 [fucoxanthin]?
Answer: inhibition rate against xanthine oxidase [1]: 44%; NOS2 gene expression level (MSU-induced group expressed as 1) ([2]; ADTC5 cells co-treated with MSU 0.125 mg/ml for 24 hours): 0.24; NOS2 gene expression level (MSU-induced group expressed as 1) ([2]; ADTC5 cells co-treated with MSU 0.125 mg/ml for 48 hours): 0.12
